In paper PMC12155096 (International Journal of Molecular Sciences, 2025):
Structures can show the parent of a compound that is named as a salt. Where two headings read alike, the source gives them in different places.

Experiments:
human CYP2C19 [1] = target: T1, human CYP2C19 (Homo sapiens, UniProt P33261); experiment: biochemical
human CYP1A2 = target: T2, human CYP1A2 (Homo sapiens, UniProt P05177)
T2 sequence (P05177 1-516): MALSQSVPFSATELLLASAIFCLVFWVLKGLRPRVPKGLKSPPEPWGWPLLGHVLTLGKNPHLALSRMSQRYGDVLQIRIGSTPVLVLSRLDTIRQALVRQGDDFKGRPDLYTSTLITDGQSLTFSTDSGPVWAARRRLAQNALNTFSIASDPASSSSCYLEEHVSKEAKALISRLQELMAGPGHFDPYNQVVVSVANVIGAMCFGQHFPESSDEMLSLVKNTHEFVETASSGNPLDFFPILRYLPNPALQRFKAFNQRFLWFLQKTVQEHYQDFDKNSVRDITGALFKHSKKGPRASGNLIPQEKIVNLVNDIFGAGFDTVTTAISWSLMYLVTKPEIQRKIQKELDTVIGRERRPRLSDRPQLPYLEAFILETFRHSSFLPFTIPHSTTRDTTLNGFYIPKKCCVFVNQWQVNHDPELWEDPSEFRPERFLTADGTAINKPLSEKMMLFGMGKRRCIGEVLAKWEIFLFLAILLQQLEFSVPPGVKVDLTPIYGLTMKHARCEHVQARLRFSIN

human CYP2C9 = human CYP2C9 (Homo sapiens, UniProt P11712); experiment: biochemical
human CYP2D6 = human CYP2D6 (Homo sapiens, UniProt P10635)
CYP3A4 = CYP3A4 (Homo sapiens, UniProt P08684); experiment: biochemical
human CYP2C19 [2] = target: T1, human CYP2C19
[3] = CYP2C19 AC50 (half-maximal activity concentration)
[4] = CYP2C9 AC50 (half-maximal activity concentration)
[5] = CYP3A4 AC50 (half-maximal activity concentration)

T1 sequence (P33261 whole entry): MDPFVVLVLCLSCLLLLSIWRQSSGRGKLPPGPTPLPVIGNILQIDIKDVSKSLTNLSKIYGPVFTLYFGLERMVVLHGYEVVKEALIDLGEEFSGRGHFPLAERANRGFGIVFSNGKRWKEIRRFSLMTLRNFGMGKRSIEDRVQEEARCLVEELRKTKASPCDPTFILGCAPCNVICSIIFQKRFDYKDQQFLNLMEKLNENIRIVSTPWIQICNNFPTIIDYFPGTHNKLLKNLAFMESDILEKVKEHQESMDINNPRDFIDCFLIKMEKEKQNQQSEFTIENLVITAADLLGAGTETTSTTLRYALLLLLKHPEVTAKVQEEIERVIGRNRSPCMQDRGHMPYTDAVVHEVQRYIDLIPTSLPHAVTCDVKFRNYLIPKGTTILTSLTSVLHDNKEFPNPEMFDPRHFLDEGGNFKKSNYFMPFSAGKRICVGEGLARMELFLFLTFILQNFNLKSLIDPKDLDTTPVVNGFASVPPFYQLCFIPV
human CYP2C9, sequence (P11712 whole entry): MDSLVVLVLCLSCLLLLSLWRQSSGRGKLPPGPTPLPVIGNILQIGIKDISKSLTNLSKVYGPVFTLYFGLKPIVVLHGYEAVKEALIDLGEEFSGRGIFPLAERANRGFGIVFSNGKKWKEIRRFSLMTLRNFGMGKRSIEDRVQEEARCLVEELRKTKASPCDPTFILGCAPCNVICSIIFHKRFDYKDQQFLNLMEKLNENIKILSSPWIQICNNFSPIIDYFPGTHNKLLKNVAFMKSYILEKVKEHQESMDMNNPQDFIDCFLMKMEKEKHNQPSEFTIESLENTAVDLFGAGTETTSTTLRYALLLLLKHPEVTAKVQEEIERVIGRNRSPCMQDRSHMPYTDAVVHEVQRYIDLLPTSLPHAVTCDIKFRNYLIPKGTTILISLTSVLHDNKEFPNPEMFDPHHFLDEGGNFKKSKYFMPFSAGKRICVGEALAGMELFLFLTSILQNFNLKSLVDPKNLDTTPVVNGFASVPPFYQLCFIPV
CYP3A4, sequence (P08684 whole entry): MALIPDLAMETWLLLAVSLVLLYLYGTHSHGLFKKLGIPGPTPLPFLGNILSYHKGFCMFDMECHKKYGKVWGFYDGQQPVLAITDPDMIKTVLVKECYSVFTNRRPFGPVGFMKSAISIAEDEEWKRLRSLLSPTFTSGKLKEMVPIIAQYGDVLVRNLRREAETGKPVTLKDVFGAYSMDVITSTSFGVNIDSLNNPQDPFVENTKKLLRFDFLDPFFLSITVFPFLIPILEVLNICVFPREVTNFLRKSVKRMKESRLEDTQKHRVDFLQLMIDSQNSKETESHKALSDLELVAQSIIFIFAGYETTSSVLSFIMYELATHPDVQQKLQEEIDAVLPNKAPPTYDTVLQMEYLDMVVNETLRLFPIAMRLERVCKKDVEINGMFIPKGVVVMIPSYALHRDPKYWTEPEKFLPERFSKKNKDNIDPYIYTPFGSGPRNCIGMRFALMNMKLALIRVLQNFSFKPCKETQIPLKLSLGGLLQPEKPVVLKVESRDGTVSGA
human CYP2D6, sequence (P10635 whole entry): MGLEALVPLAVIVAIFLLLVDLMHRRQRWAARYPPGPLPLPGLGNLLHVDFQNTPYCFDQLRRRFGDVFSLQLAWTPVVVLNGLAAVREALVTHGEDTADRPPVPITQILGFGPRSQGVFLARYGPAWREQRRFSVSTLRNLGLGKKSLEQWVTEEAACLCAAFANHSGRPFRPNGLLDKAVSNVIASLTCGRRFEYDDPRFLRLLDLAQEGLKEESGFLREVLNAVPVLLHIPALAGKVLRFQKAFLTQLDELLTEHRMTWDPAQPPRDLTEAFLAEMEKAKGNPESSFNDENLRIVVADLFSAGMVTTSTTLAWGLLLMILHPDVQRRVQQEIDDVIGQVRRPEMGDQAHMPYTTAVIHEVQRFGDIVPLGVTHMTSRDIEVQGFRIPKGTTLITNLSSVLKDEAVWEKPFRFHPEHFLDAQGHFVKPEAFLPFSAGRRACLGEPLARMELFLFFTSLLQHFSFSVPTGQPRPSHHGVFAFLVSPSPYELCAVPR

| SMILES | AC50 (human CYP2C19 [1]) | CYP1A2 AC50 (half-maximal activity concentration) (human CYP1A2) | AC50 (human CYP2C9) | CYP2D6 AC50 (half-maximal activity concentration) (human CYP2D6) | AC50 (CYP3A4) | AC50 (human CYP2C19 [1]; [3]) | AC50 (human CYP2C9; [4]) | AC50 (CYP3A4; [5]) | CYP2C19 AC50 (half-maximal activity concentration) (human CYP2C19 [2]) | CYP1A2 AC50 (half-maximal activity concentration) (human CYP1A2; mean ± standard deviation from three experiments, words = activity call) |
| --- | --- | --- | --- | --- | --- | --- | --- | --- | --- | --- |
| CC(=O)OC(c1ccccc1)C(Cl)(Cl)Cl (centres unmarked) [2,2,2-Trichloro-1-phenylethyl acetate] | 35.6 µM | Inactive | 71.3 µM | Inactive | 23.9 µM |  |  |  |  |  |
| O=C1OC2(c3ccccc31)c1ccc(O)c(Br)c1Oc1c2ccc(O)c1Br [4',5'-Dibromofluorescein] | 53.7 µM | Inconclusive inhibitor | 46.2 µM | Inactive | 27.2 µM |  |  |  |  |  |
| NNS(=O)(=O)c1ccc(Oc2ccc(S(=O)(=O)NN)cc2)cc1 [4,4'-Oxybis(benzenesulfonhydrazide)] | 16.8 µM | Inactive | 6 µM | Inconclusive inhibitor | 7.84 µM |  |  |  |  |  |
| C[C@]12CCC(=O)C=C1CC[C@@H]1[C@@H]2CC[C@]2(C)C(=O)CC[C@@H]12 [4-Androstene-3,17-dione] |  | Inactive |  | Inconclusive inhibitor |  | 33.3 µM | 71.9 µM | 8.36 µM |  |  |
| CCOCN(C(=O)CCl)c1c(C)cccc1CC [Acetochlor] |  | Inconclusive inhibitor |  | Inactive |  | 9.51 µM | 31.2 µM | 8.35 µM |  |  |
| COC(=O)C(C)N(C(=O)Cc1ccccc1)c1c(C)cccc1C (centres unmarked) [Benalaxyl] |  | Inactive |  | Inconclusive inhibitor |  | 5.23 µM | 22.6 µM | 4.54 µM |  |  |
| NS(=O)(=O)c1ccc(NCc2ccccc2)cc1 [Benzylsulfamide] | 3.82 ± 1.44 µM | Inactive | 18.6 ± 5.47 µM | Inactive | 7.8 ± 0.9 µM |  |  |  |  |  |
| C[C@]12CCC(=O)C=C1C=C[C@@H]1[C@@H]2CC[C@@]2(C)[C@H]1CC[C@@]21CCC(=O)O1 [Canrenone] |  | Inconclusive inhibitor |  | Inactive |  | 1.67 µM | 32.2 µM | 3.48 µM |  |  |
| CC(=O)O[C@]1(C(C)=O)CC[C@H]2[C@@H]3C=C(Cl)C4=CC(=O)CC[C@]4(C)[C@H]3CC[C@@]21C [Chlormadinone acetate] |  | Inactive |  | Inactive |  | 5.67 µM | 14.9 µM | 2.05 µM |  |  |
| CC(=O)O[C@H]1CC[C@@]2(C)C(=CC[C@@H]3[C@@H]2CC[C@]2(C)C(=O)CC[C@@H]32)C1 [Dehydroepiandrosterone acetate] |  | Inconclusive inhibitor |  | Inactive |  | 28.4 µM | 28.4 µM | 6.03 µM |  |  |
| CC1(C)[C@H](C(=O)O[C@H](C#N)c2cccc(Oc3ccccc3)c2)[C@@H]1C=C(Br)Br [Deltamethrin] |  | Inconclusive inhibitor |  | Inconclusive inhibitor |  | 8.8 µM | 3.68 µM | 9.13 µM |  |  |
| CC(=O)OCC(=O)[C@H]1CC[C@H]2[C@@H]3CCC4=CC(=O)CC[C@]4(C)[C@H]3CC[C@]12C [Deoxycorticosterone acetate] |  | Inactive |  | Inconclusive inhibitor |  | 8.43 µM | 5.67 µM | 4.07 µM |  |  |
| O=S(=O)(c1ccccc1)c1ccccc1 [Diphenylsulfone] |  | Inactive |  | Inactive |  | 41.1 µM | 7.39 µM | 28.4 µM |  |  |
| CC(=O)[C@H]1CC[C@H]2[C@@H]3C=CC4=CC(=O)CC[C@@]4(C)[C@@H]3CC[C@]12C [Dydrogesterone] |  | Inactive |  | Inconclusive inhibitor |  | 5.49 µM | 32.4 µM | 4.36 µM |  |  |
| C#C[C@]1(OC(C)=O)CC[C@H]2[C@@H]3CCC4=C[C@@H](OC(C)=O)CC[C@@H]4[C@H]3CC[C@@]21C [Ethynodiol diacetate] |  | Inactive |  | Inactive |  | 23.7 µM | 13.3 µM | 3.91 µM |  |  |
| COC(=O)C(C)N(C(=O)c1ccco1)c1c(C)cccc1C (centres unmarked) [Furalaxyl] |  | Inconclusive inhibitor |  | Inactive |  | 13.4 µM | 29.5 µM | 14.7 µM |  |  |
| CC(=O)O[C@]1(C(C)=O)CC[C@H]2[C@@H]3C=C(C)C4=CC(=O)CC[C@]4(C)[C@H]3CC[C@@]21C [Megestrol acetate] |  | Inactive |  | Inactive |  | 7.2 µM | 8.11 µM | 2.16 µM |  |  |
| C=C1C[C@H]2[C@@H]3C=C(C)C4=CC(=O)CC[C@]4(C)[C@H]3CC[C@]2(C)[C@@]1(OC(C)=O)C(C)=O [Melengestrol acetate] |  | Inactive |  | Inactive |  | 20.3 µM | 16.8 µM | 4.92 µM |  |  |
| CCCCCCCCOc1ccc(C(=O)c2ccccc2)c(O)c1 [Octabenzone] |  | Inconclusive inhibitor |  | Inactive |  | 53.3 µM | 13.8 µM | 26.2 µM |  |  |
| CCCCCCCCCCOS(=O)(=O)O [Sodium decyl sulfate] |  | Inactive | 38.5 µM | Inconclusive inhibitor | 85.8 µM |  |  |  | Inactive |  |
| O=C(O)Cc1cc(I)c(Oc2cc(I)c(O)c(I)c2)c(I)c1 [Tetrac] |  | Inactive | 46.5 µM | Inactive | 9.83 µM |  |  |  | Inactive |  |
| CC(C)N(C(=O)SCC(Cl)=C(Cl)Cl)C(C)C [Tri-allate] |  | Inconclusive inhibitor |  | Inactive |  | 10.3 µM | 33 µM | 2.47 µM |  |  |
| O=P(c1ccccc1)(c1ccccc1)c1ccccc1 [Triphenylphosphine oxide] | 7.22 ± 1.65 µM |  | 6.87 ± 0.95 µM | Inactive | 37 ± 2.51 µM |  |  |  |  | Inconclusive inhibitor |
| ClC(Cl)=C(c1ccc(Cl)cc1)c1ccccc1Cl [o,p'-DDE] |  | Inactive |  | Inactive |  | 6.84 µM | 21 µM | 22.9 µM |  |  |
| O=C(O)C(c1ccc(Cl)cc1)c1ccc(Cl)cc1 [p,p'-DDA] |  | Inactive |  | Inactive |  | 24.5 µM | 15.4 µM | 68.4 µM |  |  |
